Experimental data as given in patent US20160324992A1, “IDENTIFICATION AND TREATMENT OF VULNERABLE PLAQUES” (OTTAWA HEART INSTITUTE RESEARCH CORPORATION, priority 2015, published 2016).

Experiments:
human MLKL promoter = conditions: RAW macrophages, 50 uM DPI pre-treatment, oxLDL 6 or 24 h
Experimental: (§1) Promoter Luciferase Assay. Luciferase reporter constructs containing the human MLKL and RIP3 promoters were purchased from SwitchGear Genomics (Carlsbad, CA). RAW264.7 (ATCC) macrophages were plated in 24-well plates in 10% FBS DMEM and transfected using Lipofectamine 2000 (Life Technologies) with MLKL-promoter or RIP3-promoter plasmids (renilla-based luciferase reporter) together with pGL3 basic (firefly-based reporter, Promega) to normalize for transfection efficiency. Twenty-four hours after transfection, cells were treated with or without 100 μg/ml oxLDL as above, for an additional 24 hours. Cells were harvested in lx passive lysis buffer and luciferase measured using the Dual Luciferase Assay (Promega) according to manufacturer's instructions. All experiments were performed in quadruplicate technical replicates at least 3 times.
(§2) Promoter Luciferase Assay. Luciferase reporter constructs containing the human MLKL and RIP3 promoters were purchased from SwitchGear Genomics (Carlsbad, CA). […] Cells were harvested in 1× passive lysis buffer and luciferase measured using the Dual Luciferase Assay (Promega) according to manufacturer's instructions. […]

human RIP3 promoter = conditions: RAW macrophages, 50 uM DPI pre-treatment, oxLDL 6 or 24 h
Experimental: as §1, §2

[1] = test system: reactive oxygen species (ROS); conditions: BMDMs pre-incubated with 50 μM DPI, oxLDL or oxLDL+zVAD.fmk 3 h
Experimental: Measurement of Reactive Oxygen Species (ROS). BMDMs were pre-incubated with DPI for 30 minutes followed by the cell permeant reagent 2′, 7′-dichloroflurescin diacetate (DCFDA) fluorescent dye for 1 h. Cells were then treated with oxLDL or oxLDL+zVAD.fmk and fluorescence was measured at 3 h and 24 h as per manufacturers' instructions (Abcam, ab113851).

PGAM5 = conditions: macrophages, DPI
RIP3 = conditions: BMDMs, pre-treatment with 50 μM DPI
Experimental: (§3) RNA isolation and quantitative real-time PCR. BMDMs were treated with control media with or without oxLDL or oxLDL+zVAD.fmk for the indicated time points with or without 1 h pre-treatment with 50 μM DPI. Alternatively, BMDMs were polarized to M0, M1 or M2 prior to RNA isolation, as described above. Total RNA was isolated using TRIzol reagent (Invitrogen) as per manufacturer's instructions and cDNA was synthesized using iScript Reverse Transcription kit (BioRad™). Quantitative real-time PCR was performed in triplicate using either the Sso Advanced Universal SYBR Green Supermix (Biorad) or Taqman™ Gene Expression Assay and mRNA level of target genes was normalized to HPRT or β-actin house keeping genes.
as §3, with “uM” for “μM”, “Total RNA was isolated using TRIzol reagent (Invitrogen) as per manufacturer's instructions and cDNA was synthesized using iScript Reverse Transcription kit (BioRad™).” left out, “Taqman®” for “Taqman™”

MLKL = conditions: BMDMs, pre-treatment with 50 μM DPI
Experimental: as §3
as §3, with “uM” for “μM”, “Total RNA was isolated using TRIzol reagent (Invitrogen) as per manufacturer's instructions and cDNA was synthesized using iScript Reverse Transcription kit (BioRad™).” left out, “Taqman®” for “Taqman™”

With `c1ccc2c(c1)[I+]c1ccccc1-2` [DPI, diphenyleneiodonium] the “oxLDL-induced MLKL promoter activity (in words)” value (human MLKL promoter) was “significantly blunted”, the “oxLDL-induced RIP3 promoter activity (in words)” value (human RIP3 promoter) was “significantly blunted” and the “oxLDL-induced production of ROS (in words)” value [1] was “inhibited”. The “oxLDL-induced PGAM5 expression (in words)” value (PGAM5) was “similarly inhibited”, the “induction of RIP3 mRNA expression by oxLDL and oxLDL+zVAD.fmk (in words)” value (RIP3) was “inhibited” and the “induction of MLKL mRNA expression by oxLDL and oxLDL+zVAD.fmk (in words)” value (MLKL) was “inhibited”.
